Patent US9249129B2, “Morpholino substituted urea derivatives as mTOR inhibitors” (CELLZOME LIMITED, priority 2010, dated 2016)

How the values were obtained:
Test in all cases: kinobeads assay with mass spectrometry detection of kinases (kinase selectivity profile)
Format in all cases: binding
[1] = target: T1, kinases (kinome) (Homo sapiens, UniProt Q8TBX8); settings: PIP5K2C (Lipid Kinase), IPI00152303
T1 construct: determined in kinobeads assays with mass spectrometry detection of kinases as described previously; endogenous in cells; host or cells: cell lysate
T1 sequence (Q8TBX8 1-421): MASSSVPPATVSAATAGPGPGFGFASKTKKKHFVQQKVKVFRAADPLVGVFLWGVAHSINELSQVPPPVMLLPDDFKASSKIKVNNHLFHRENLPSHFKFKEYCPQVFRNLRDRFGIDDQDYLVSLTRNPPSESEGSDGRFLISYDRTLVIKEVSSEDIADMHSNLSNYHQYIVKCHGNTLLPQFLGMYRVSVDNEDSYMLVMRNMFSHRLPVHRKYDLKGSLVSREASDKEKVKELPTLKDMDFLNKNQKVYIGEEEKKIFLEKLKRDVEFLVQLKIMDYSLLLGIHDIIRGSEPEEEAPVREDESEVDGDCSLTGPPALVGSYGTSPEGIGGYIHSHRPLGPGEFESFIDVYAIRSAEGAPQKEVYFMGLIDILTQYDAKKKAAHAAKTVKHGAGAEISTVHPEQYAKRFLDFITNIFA
Text: (§1) The protein kinase complement of the human genome (the kinome) was described previously (Manning et al., 2002. Science 298(5600):1912-1934). Sequence accession numbers are defined by the International Protein Index (IPI) (Kersey et al., 2004. Proteomics 4(7):1985-1988).

[2] = target: T2, kinases (kinome) (Homo sapiens, UniProt P29320); settings: EphA3 (TK), IPI00298105
T2 construct: determined in kinobeads assays with mass spectrometry detection of kinases as described previously; endogenous in cells; host or cells: cell lysate
T2 sequence (P29320 21-983): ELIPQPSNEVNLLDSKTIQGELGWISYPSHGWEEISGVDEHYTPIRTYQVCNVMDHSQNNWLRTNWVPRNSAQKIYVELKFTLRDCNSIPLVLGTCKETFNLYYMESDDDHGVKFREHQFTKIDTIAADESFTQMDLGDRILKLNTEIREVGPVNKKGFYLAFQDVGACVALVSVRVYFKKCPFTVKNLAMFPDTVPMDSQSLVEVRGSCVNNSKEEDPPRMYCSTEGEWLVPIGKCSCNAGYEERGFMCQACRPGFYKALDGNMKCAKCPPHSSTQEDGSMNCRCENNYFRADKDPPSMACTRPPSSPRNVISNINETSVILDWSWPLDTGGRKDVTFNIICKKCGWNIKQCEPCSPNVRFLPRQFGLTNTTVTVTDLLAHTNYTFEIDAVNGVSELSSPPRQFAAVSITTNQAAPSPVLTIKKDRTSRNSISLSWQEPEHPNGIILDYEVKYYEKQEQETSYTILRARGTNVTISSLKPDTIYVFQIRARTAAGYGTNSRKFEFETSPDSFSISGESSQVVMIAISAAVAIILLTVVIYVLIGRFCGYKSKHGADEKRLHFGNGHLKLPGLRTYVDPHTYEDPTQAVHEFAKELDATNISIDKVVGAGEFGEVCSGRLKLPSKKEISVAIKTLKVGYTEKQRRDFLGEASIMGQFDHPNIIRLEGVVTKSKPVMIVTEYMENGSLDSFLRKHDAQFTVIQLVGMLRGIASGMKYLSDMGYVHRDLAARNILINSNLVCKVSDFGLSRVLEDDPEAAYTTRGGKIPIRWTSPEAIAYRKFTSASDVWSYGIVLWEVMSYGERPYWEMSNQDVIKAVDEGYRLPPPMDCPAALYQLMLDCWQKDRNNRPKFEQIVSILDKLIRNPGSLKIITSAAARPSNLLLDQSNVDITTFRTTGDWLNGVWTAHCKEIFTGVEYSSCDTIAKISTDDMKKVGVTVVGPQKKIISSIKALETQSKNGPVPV
Text: as §1

[3] = target: T3, kinases (kinome) (Homo sapiens, UniProt Q16566); settings: CaMK4 (CAMK), IPI00430411
T3 construct: determined in kinobeads assays with mass spectrometry detection of kinases as described previously; endogenous in cells; host or cells: cell lysate
T3 sequence (Q16566 1-473): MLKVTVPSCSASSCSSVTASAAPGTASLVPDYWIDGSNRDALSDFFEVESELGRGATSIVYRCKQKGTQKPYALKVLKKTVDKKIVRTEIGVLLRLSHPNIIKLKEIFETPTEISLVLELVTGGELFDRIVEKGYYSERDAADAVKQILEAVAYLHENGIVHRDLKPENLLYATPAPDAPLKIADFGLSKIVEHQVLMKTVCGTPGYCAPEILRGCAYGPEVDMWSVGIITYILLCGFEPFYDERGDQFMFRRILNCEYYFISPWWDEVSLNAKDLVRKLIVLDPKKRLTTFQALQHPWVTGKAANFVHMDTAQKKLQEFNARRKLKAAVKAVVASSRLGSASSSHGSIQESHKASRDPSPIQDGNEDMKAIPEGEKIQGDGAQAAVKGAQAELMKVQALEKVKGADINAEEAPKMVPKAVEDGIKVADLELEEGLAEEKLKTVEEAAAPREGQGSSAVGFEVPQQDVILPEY
Text: as §1

[4] = target: T4, kinases (kinome) (Homo sapiens, UniProt Q9P2K8); settings: GCN2 (Other), IPI00163851
T4 construct: determined in kinobeads assays with mass spectrometry detection of kinases as described previously; endogenous in cells; host or cells: cell lysate
Text: as §1

T4 sequence (Q9P2K8 whole entry): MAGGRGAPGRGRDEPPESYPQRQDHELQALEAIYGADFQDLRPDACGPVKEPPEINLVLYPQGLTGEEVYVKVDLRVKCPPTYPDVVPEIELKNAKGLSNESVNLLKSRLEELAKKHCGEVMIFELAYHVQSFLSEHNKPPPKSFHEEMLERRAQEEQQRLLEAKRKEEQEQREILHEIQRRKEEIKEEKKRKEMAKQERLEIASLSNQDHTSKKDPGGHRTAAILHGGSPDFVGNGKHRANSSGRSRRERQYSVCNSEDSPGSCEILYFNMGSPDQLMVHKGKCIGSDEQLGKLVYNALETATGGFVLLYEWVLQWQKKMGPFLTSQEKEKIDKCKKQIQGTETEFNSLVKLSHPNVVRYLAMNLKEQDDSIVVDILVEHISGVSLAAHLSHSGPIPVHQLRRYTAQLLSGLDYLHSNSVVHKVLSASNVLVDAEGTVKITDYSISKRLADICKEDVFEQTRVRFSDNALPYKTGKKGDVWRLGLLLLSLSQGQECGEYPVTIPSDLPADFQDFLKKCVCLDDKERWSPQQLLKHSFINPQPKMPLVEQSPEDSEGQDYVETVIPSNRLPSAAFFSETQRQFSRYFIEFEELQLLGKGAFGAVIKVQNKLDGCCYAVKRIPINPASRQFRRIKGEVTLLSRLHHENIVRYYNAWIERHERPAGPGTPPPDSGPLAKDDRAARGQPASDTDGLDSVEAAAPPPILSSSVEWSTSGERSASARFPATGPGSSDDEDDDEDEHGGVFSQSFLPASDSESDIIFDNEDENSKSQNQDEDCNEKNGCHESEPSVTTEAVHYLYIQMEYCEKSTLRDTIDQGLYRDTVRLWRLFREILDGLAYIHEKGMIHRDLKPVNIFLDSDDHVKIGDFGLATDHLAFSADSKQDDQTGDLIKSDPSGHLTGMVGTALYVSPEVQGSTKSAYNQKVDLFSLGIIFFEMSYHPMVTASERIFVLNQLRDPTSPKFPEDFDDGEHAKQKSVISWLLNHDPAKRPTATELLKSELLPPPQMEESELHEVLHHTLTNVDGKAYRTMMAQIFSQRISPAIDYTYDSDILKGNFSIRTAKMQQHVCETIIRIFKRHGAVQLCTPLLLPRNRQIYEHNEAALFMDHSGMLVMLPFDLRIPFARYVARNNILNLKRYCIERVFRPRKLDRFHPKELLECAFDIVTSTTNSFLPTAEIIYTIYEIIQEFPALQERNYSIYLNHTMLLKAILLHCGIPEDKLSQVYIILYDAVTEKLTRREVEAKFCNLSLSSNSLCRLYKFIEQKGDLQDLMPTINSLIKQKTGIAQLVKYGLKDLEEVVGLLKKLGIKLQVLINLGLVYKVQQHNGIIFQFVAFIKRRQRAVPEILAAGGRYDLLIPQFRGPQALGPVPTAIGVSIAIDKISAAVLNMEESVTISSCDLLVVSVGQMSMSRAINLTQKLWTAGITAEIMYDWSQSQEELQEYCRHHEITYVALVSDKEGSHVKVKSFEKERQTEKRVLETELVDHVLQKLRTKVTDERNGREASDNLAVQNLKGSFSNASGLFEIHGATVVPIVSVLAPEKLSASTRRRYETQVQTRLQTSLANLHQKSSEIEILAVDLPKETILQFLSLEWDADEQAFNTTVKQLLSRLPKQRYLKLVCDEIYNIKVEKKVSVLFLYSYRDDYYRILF

| IC50 [1] | IC50 [2] | IC50 [3] | IC50 [4] | Structure (SMILES) |
| --- | --- | --- | --- | --- |
| > 10 µM | > 10 µM | > 10 µM | – | C[C@H]1COCCN1c1nc(-c2ccc(NC(=O)NC3CC3)cc2)cc(-c2cc(F)ccc2S(C)(=O)=O)n1 [Example 40, (S)-1-cyclopropyl-3-(4-(6-(5-fluoro-2-(methylsulfonyl)phenyl)-2-(3-methylmorpholino)pyrimidin-4-yl)phenyl)urea] |
| – | – | > 10 µM | > 10 µM | C[C@H]1COCCN1c1cc(-c2ccccc2S(C)(=O)=O)nc(-c2ccc(NC(=O)NC3CC3)cc2)n1 [Example 6, (S)-1-cyclopropyl-3-(4-(4-(3-methylmorpholino)-6-(2-(methylsulfonyl)phenyl)pyrimidin-2-yl)phenyl)urea] |
| – | > 10 µM | > 10 µM | – | CCNC(=O)Nc1ccc(-c2cc(-c3ccccc3C#N)nc(N3CCOC[C@@H]3C)n2)cc1 [Example 8, (S)-1-(4-(6-(2-cyanophenyl)-2-(3-methylmorpholino)pyrimidin-4-yl)phenyl)-3-ethylurea] |
| > 10 µM | > 10 µM | – | > 10 µM | C[C@H]1COCCN1c1nc(-c2ccc(NC(=O)NC3CC3)cc2)cc(-c2cccnc2S(C)(=O)=O)n1 [Example 46, (S)-1-cyclopropyl-3-(4-(2-(3-methylmorpholino)-6-(2-(methylsulfonyl)pyridin-3-yl)pyrimidin-4-yl)phenyl)urea] |
| > 10 µM | – | – | – | C[C@H]1COCCN1c1nc(-c2ccc(NC(=O)N[C@H]3CCC[C@@H]3O)cc2)cc(-c2cc(F)ccc2S(C)(=O)=O)n1 [Example 76, 1-(4-(6-(5-fluoro-2-(methylsulfonyl)phenyl)-2-((S)-3-methylmorpholino)pyrimidin-4-yl)phenyl)-3-((1S,2S)-2-hydroxycyclopentyl)urea] |
| > 10 µM | > 10 µM | > 10 µM | > 10 µM | C[C@H]1COCCN1c1cc(-c2ccccn2)nc(-c2ccc(NC(=O)NCCO)cc2)n1 [Example 43, (S)-1-(2-hydroxyethyl)-3-(4-(4-(3-methylmorpholino)-6-(pyridin-2-yl)pyrimidin-2-yl)phenyl)urea] |
| – | > 10 µM | > 10 µM | > 10 µM | C[C@H]1COCCN1c1nc(-c2ccc(NC(=O)NC3CC3)cc2)cc(-c2ccccc2S(C)(=O)=O)n1 [Example 4, (S)-1-cyclopropyl-3-(4-(2-(3-methylmorpholino)-6-(2-(methylsulfonyl)phenyl)pyrimidin-4-yl)phenyl)urea] |
